Measured values from patent US8932597B2 (priority 2008, dated 2015).

Test system: anti-M2 human monoclonal antibody Z3G1
Format: binding

First: 439 (SLLTEVETPIRNE; epitope peptide) [compound 439]
Second: 1250 (MALLTEVETPIRNEWGCRCN; epitope peptide) [compound 1250]
The “Signal (peptides that bind to Z3G1)” value of the first is lower: 1819 for the first, 2604 for the second.

First: 1251 (MDLLTEVETPIRNEWGCRCN; epitope peptide) [compound 1251]
Second: 1252 (MELLTEVETPIRNEWGCRCN; epitope peptide) [compound 1252]
The “Signal (peptides that bind to Z3G1)” value of the first is higher: 2726 for the first, 2679 for the second.

First: 1253 (MFLLTEVETPIRNEWGCRCN; epitope peptide) [compound 1253]
Second: 1254 (MGLLTEVETPIRNEWGCRCN; epitope peptide) [compound 1254]
The “Signal (peptides that bind to Z3G1)” value of the first is lower: 1707 for the first, 2635 for the second.

First: 1255 (MHLLTEVETPIRNEWGCRCN; epitope peptide) [compound 1255]
Second: 1256 (MILLTEVETPIRNEWGCRCN; epitope peptide) [compound 1256]
The “Signal (peptides that bind to Z3G1)” value of the first is higher: 2449 for the first, 1634 for the second.

First: 1257 (MKLLTEVETPIRNEWGCRCN; epitope peptide) [compound 1257]
Second: 1258 (MLLLTEVETPIRNEWGCRCN; epitope peptide) [compound 1258]
The “Signal (peptides that bind to Z3G1)” value of the first is higher: 2629 for the first, 2091 for the second.

Compared with “1259 (MMLLTEVETPIRNEWGCRCN; epitope peptide) [compound 1259]”, “1260 (MNLLTEVETPIRNEWGCRCN; epitope peptide) [compound 1260]” is higher in “Signal (peptides that bind to Z3G1)” value: 2666 for the first, 2733 for the second.

Going from “1261 (MPLLTEVETPIRNEWGCRCN; epitope peptide) [compound 1261]” to “1262 (MQLLTEVETPIRNEWGCRCN; epitope peptide) [compound 1262]”, the “Signal (peptides that bind to Z3G1)” value rises from 2521 to 2526.

Compared with “1263 (MRLLTEVETPIRNEWGCRCN; epitope peptide) [compound 1263]”, “1264 (MVLLTEVETPIRNEWGCRCN; epitope peptide) [compound 1264]” is lower in “Signal (peptides that bind to Z3G1)” value: 2519 for the first, 2465 for the second.

Going from “1265 (MWLLTEVETPIRNEWGCRCN; epitope peptide) [compound 1265]” to “1266 (MYLLTEVETPIRNEWGCRCN; epitope peptide) [compound 1266]”, the “Signal (peptides that bind to Z3G1)” value falls from 2615 to 1960.

First: 1267 (MSILTEVETPIRNEWGCRCN; epitope peptide) [compound 1267]
Second: 1268 (MSMLTEVETPIRNEWGCRCN; epitope peptide) [compound 1268]
The “Signal (peptides that bind to Z3G1)” value of the first is higher: 2582 for the first, 1329 for the second.

First: 1269 (MSVLTEVETPIRNEWGCRCN; epitope peptide) [compound 1269]
Second: 1270 (MSLDTEVETPIRNEWGCRCN; epitope peptide) [compound 1270]
The “Signal (peptides that bind to Z3G1)” value of the first is lower: 2111 for the first, 2594 for the second.

Going from “1271 (MSLFTEVETPIRNEWGCRCN; epitope peptide) [compound 1271]” to “1272 (MSLHTEVETPIRNEWGCRCN; epitope peptide) [compound 1272]”, the “Signal (peptides that bind to Z3G1)” value falls from 2115 to 2058.

Compared with “1273 (MSLMTEVETPIRNEWGCRCN; epitope peptide) [compound 1273]”, “1274 (MSLNTEVETPIRNEWGCRCN; epitope peptide) [compound 1274]” is lower in “Signal (peptides that bind to Z3G1)” value: 2804 for the first, 2787 for the second.

Going from “1276 (MSLQTEVETPIRNEWGCRCN; epitope peptide) [compound 1276]” to “1277 (MSLRTEVETPIRNEWGCRCN; epitope peptide) [compound 1277]”, the “Signal (peptides that bind to Z3G1)” value falls from 2792 to 2554.

First: 1278 (MSLYTEVETPIRNEWGCRCN; epitope peptide) [compound 1278]
Second: 1279 (MSLLAEVETPIRNEWGCRCN; epitope peptide) [compound 1279]
The “Signal (peptides that bind to Z3G1)” value of the first is lower: 1313 for the first, 2807 for the second.

Compared with “1280 (MSLLDEVETPIRNEWGCRCN; epitope peptide) [compound 1280]”, “1281 (MSLLEEVETPIRNEWGCRCN; epitope peptide) [compound 1281]” is higher in “Signal (peptides that bind to Z3G1)” value: 2763 for the first, 2805 for the second.

First: 1282 (MSLLFEVETPIRNEWGCRCN; epitope peptide) [compound 1282]
Second: 1283 (MSLLGEVETPIRNEWGCRCN; epitope peptide) [compound 1283]
The “Signal (peptides that bind to Z3G1)” value of the first is lower: 2581 for the first, 2717 for the second.

Going from “1284 (MSLLHEVETPIRNEWGCRCN; epitope peptide) [compound 1284]” to “1285 (MSLLIEVETPIRNEWGCRCN; epitope peptide) [compound 1285]”, the “Signal (peptides that bind to Z3G1)” value falls from 2691 to 2371.

First: 1286 (MSLLKEVETPIRNEWGCRCN; epitope peptide) [compound 1286]
Second: 1287 (MSLLLEVETPIRNEWGCRCN; epitope peptide) [compound 1287]
The “Signal (peptides that bind to Z3G1)” value of the first is higher: 2825 for the first, 2804 for the second.

First: 1288 (MSLLMEVETPIRNEWGCRCN; epitope peptide) [compound 1288]
Second: 1289 (MSLLNEVETPIRNEWGCRCN; epitope peptide) [compound 1289]
The “Signal (peptides that bind to Z3G1)” value of the first is higher: 2847 for the first, 2824 for the second.

Going from “1290 (MSLLPEVETPIRNEWGCRCN; epitope peptide) [compound 1290]” to “1291 (MSLLQEVETPIRNEWGCRCN; epitope peptide) [compound 1291]”, the “Signal (peptides that bind to Z3G1)” value rises from 2728 to 2792.

First: 1292 (MSLLREVETPIRNEWGCRCN; epitope peptide) [compound 1292]
Second: 1293 (MSLLSEVETPIRNEWGCRCN; epitope peptide) [compound 1293]
The “Signal (peptides that bind to Z3G1)” value of the first is lower: 2699 for the first, 2790 for the second.

First: 1294 (MSLLVEVETPIRNEWGCRCN; epitope peptide) [compound 1294]
Second: 1295 (MSLLWEVETPIRNEWGCRCN; epitope peptide) [compound 1295]
The “Signal (peptides that bind to Z3G1)” value of the first is higher: 2732 for the first, 2531 for the second.

Going from “1296 (MSLLYEVETPIRNEWGCRCN; epitope peptide) [compound 1296]” to “1297 (MSLLTQVETPIRNEWGCRCN; epitope peptide) [compound 1297]”, the “Signal (peptides that bind to Z3G1)” value falls from 2464 to 1697.

First: 1298 (MSLLTTVETPIRNEWGCRCN; epitope peptide) [compound 1298]
Second: 1299 (MSLLTEVATPIRNEWGCRCN; epitope peptide) [compound 1299]
The “Signal (peptides that bind to Z3G1)” value of the first is higher: 2699 for the first, 2633 for the second.

Going from “1300 (MSLLTEVDTPIRNEWGCRCN; epitope peptide) [compound 1300]” to “1301 (MSLLTEVFTPIRNEWGCRCN; epitope peptide) [compound 1301]”, the “Signal (peptides that bind to Z3G1)” value falls from 2856 to 1858.

Compared with “1302 (MSLLTEVGTPIRNEWGCRCN; epitope peptide) [compound 1302]”, “1303 (MSLLTEVHTPIRNEWGCRCN; epitope peptide) [compound 1303]” is lower in “Signal (peptides that bind to Z3G1)” value: 2789 for the first, 2751 for the second.

Compared with “1304 (MSLLTEVITPIRNEWGCRCN; epitope peptide) [compound 1304]”, “1305 (MSLLTEVKTPIRNEWGCRCN; epitope peptide) [compound 1305]” is higher in “Signal (peptides that bind to Z3G1)” value: 2668 for the first, 2708 for the second.

First: 1306 (MSLLTEVLTPIRNEWGCRCN; epitope peptide) [compound 1306]
Second: 1307 (MSLLTEVNTPIRNEWGCRCN; epitope peptide) [compound 1307]
The “Signal (peptides that bind to Z3G1)” value of the first is lower: 2714 for the first, 2807 for the second.

Going from “1308 (MSLLTEVPTPIRNEWGCRCN; epitope peptide) [compound 1308]” to “1309 (MSLLTEVRTPIRNEWGCRCN; epitope peptide) [compound 1309]”, the “Signal (peptides that bind to Z3G1)” value rises from 2380 to 2668.

Compared with “1310 (MSLLTEVWTPIRNEWGCRCN; epitope peptide) [compound 1310]”, “1311 (MSLLTEVYTPIRNEWGCRCN; epitope peptide) [compound 1311]” is lower in “Signal (peptides that bind to Z3G1)” value: 2546 for the first, 2181 for the second.

Going from “1312 (MSLLTEVEWPIRNEWGCRCN; epitope peptide) [compound 1312]” to “1313 (CMSLLCEVETPIRNE; epitope peptide) [compound 1313]”, the “Signal (peptides that bind to Z3G1)” value rises from 2541 to 2582.

First: 1314 (CMSLCTEVETPIRNE; epitope peptide) [compound 1314]
Second: 1316 (CSLLCEVETPIRNE; epitope peptide) [compound 1316]
The “Signal (peptides that bind to Z3G1)” value of the first is lower: 1705 for the first, 2527 for the second.

First: 1320 (MCLLTEVETPCRNE; epitope peptide) [compound 1320]
Second: 1321 (MCLLTEVETCIRNE; epitope peptide) [compound 1321]
The “Signal (peptides that bind to Z3G1)” value of the first is higher: 2404 for the first, 1948 for the second.

First: 1322 (MCLLTEVECPIRNE; epitope peptide) [compound 1322]
Second: 1323 (MCLLTEVCTPIRNE; epitope peptide) [compound 1323]
The “Signal (peptides that bind to Z3G1)” value of the first is higher: 2421 for the first, 1407 for the second.

First: 1324 (MCLLCEVETPIRNE; epitope peptide) [compound 1324]
Second: 1325 (MSLLCEVETPIRNC; epitope peptide) [compound 1325]
The “Signal (peptides that bind to Z3G1)” value of the first is lower: 2038 for the first, 2823 for the second.

First: 1326 (MSLLCEVETPIRCE; epitope peptide) [compound 1326]
Second: 1327 (MSLLCEVETPICNE; epitope peptide) [compound 1327]
The “Signal (peptides that bind to Z3G1)” value of the first is higher: 2772 for the first, 2704 for the second.

First: 1328 (MSLLCEVETPCRNE; epitope peptide) [compound 1328]
Second: 1329 (MSLLCEVETCIRNE; epitope peptide) [compound 1329]
The “Signal (peptides that bind to Z3G1)” value of the first is higher: 2652 for the first, 2589 for the second.

First: 1330 (MSLLCEVECPIRNE; epitope peptide) [compound 1330]
Second: 1331 (MSLLCEVCTPIRNE; epitope peptide) [compound 1331]
The “Signal (peptides that bind to Z3G1)” value of the first is higher: 2606 for the first, 2601 for the second.

“1333 (MSLLCEVETPIRNE; epitope peptide) [compound 1333]” was tested, and the “Signal (peptides that bind to Z3G1)” value was 2454.

In the case of “634 (SLLTEVETPIRNEWGCRANDSSD; epitope peptide) [compound 634]”, the “Signal (peptides that show specific binding to Z3G1)” value is reported as 2265.
